Results reported in patent publication US20250387357A1 (SpringWorks Therapeutics, Inc., priority 2024, published 2025).

Tests used:
[1] = Pharmacokinetic parameters and characteristics of mirdametinib (Table A); design: species or system human; details: in vivo
UGT and CES enzymes = experiment: Metabolism, primary pathway; details: full wording over r33-r36: Metabolism involves glucuronidation and oxidation via UGT and CES enzymes

O=C(NOC[C@H](O)CO)c1ccc(F)c(F)c1Nc1ccc(I)cc1F (single isomer, unassigned) [mirdametinib]
Excretion: Radioactivity in feces [1]: In feces: 27% | Excretion: Radioactivity in urine [1]: In urine: 68% | Excretion: Unchanged mirdametinib in urine [1]: In urine: 0.7% | Excretion: Unchanged mirdametinib in urine and feces [1]: In urine and feces: 9% | Metabolism primary pathway (UGT and CES enzymes): Metabolism involves
